Experimental data: ChEMBL document CHEMBL1201862, “PubChem BioAssay data set” (2004)
Calls of active or inactive are those of the source.

What was measured:
[1] = biological target: Lysine-specific demethylase 4C (Homo sapiens, UniProt Q9H3R0); experiment: inhibition of JMJD2C H3K9me3 demethylation – biochemical, DELFIA europium, cherry-picked samples, dose response (AID 488835); format: functional
[2] = viability loss in THP-1 monocytes – THP-1 cells, cytotoxicity control for Vif-APOBEC3G degradation inhibitor project, dose response (AID 1117359); format: functional; details: THP-1
[3] = biological target: T1, Mannose-6-phosphate isomerase (Homo sapiens, UniProt P34949); experiment: MPI inhibition at elevated mannose 6-phosphate – biochemical, fluorescence intensity, high mannose 6-phosphate, primary screen (AID 1220)
T1 sequence (P34949 whole entry): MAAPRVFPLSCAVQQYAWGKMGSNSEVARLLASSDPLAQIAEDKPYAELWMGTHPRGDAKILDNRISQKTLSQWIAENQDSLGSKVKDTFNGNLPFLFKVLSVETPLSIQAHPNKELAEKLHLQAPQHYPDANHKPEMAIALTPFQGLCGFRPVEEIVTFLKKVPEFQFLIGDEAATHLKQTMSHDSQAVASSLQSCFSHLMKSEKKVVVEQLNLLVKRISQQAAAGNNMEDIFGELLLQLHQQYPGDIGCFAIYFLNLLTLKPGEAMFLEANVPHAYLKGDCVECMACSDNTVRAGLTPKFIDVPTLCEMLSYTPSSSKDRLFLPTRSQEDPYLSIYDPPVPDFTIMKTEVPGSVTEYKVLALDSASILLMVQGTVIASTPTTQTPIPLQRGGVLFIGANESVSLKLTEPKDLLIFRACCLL

[4] = NIH3T3 cell viability loss – ATP luminescence, mouse fibroblasts, counter-screen, dose response (AID 2010); format: functional, cell-based;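 further: cells exposed to compound for about 90 hours before reading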
[5] = system: Streptococcus sp. 'group A'; experiment: Streptococcus pyogenes SK(-)GAS viability under kanamycin – luminescence, BacTiterGlo, confirmation, counter-screen for streptokinase expression inhibitor project, dose response (AID 1900); format: functional, organism-based
Mu-type opioid receptor [6] = biological target: T2, Mu-type opioid receptor (Homo sapiens, UniProt P35372); experiment: mu opioid receptor blockers – image-based, SAR follow-up (AID 2420); format: functional;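 further: compounds added before stimulation of receptor with agonist DAMGO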
T2 sequence (P35372 whole entry): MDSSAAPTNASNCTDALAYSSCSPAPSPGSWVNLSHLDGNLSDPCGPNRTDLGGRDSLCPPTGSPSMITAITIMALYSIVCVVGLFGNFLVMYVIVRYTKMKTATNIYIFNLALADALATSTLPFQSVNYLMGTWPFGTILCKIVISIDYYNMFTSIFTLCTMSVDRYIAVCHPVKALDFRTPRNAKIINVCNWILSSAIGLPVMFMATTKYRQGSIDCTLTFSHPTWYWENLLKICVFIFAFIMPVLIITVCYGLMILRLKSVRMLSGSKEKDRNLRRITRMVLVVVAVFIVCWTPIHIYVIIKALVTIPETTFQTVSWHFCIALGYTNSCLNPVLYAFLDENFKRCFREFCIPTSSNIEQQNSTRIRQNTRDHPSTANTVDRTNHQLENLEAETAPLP

[7] = biological target: T3, Kappa-type opioid receptor (Homo sapiens, UniProt P41145); experiment: kappa opioid receptor blockers, image-based, SAR follow-up (AID 2348); format: functional
T3 sequence (P41145 whole entry): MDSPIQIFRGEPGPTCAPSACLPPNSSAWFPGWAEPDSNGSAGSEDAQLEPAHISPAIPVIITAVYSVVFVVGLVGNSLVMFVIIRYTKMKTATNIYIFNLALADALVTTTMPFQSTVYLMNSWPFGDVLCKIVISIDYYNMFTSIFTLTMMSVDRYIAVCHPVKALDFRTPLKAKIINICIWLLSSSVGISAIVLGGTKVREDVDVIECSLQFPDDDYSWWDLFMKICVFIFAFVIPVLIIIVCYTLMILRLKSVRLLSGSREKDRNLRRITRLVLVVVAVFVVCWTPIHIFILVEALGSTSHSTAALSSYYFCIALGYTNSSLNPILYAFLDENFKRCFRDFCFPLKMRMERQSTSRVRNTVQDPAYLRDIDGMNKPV

[8] = biological target: T4, Delta-type opioid receptor (Homo sapiens, UniProt P41143); experiment: DOR agonists, SAR follow-up, image-based (AID 2370); format: functional
T4 sequence (P41143 whole entry): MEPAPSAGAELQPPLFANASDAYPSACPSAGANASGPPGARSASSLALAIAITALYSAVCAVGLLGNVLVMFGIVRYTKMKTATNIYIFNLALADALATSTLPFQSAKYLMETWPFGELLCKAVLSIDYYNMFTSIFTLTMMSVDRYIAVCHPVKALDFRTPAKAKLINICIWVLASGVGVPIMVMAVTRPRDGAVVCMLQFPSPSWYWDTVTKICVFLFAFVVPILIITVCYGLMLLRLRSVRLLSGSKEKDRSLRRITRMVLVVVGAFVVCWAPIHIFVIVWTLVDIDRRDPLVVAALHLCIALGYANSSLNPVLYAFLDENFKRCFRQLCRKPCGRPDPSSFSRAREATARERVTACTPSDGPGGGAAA

[9] = biological target: T5, Polyadenylate-binding protein 1 (Homo sapiens, UniProt P11940); experiment: MLLE binding blockers, Cy5 peptide tracer – biochemical, fluorescence polarization, Cy5-PAM2 peptide, secondary, miRNA deadenylation inhibitor project, dose response (AID 602260); format: functional; details: read-out: IC50_Mean
T5 sequence (P11940 whole entry): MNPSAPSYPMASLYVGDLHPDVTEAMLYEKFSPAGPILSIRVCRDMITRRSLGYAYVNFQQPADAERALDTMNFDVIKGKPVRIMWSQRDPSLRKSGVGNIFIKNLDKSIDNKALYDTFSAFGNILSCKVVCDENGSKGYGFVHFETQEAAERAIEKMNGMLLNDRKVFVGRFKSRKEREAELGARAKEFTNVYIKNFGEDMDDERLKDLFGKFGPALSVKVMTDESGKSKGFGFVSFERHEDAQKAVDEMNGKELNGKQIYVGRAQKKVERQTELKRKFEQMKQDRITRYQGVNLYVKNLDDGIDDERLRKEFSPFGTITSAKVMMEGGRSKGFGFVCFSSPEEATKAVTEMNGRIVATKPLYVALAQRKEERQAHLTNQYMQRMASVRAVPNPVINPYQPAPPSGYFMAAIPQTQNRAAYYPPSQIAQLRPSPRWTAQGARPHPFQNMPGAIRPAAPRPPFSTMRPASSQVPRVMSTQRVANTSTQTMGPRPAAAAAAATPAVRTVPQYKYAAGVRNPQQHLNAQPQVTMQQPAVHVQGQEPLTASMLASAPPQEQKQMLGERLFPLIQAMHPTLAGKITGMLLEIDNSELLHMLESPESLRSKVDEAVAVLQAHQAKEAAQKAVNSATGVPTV

[10] = loss of viability in HepG2 cells – cell-based, CellTiter-Glo, cherry-picked, cytotoxicity control for Shn3 inhibitor project, dose response (AID 624134); format: functional
[11] = biological target: T3, Kappa-type opioid receptor; format: functional
Beta-galactosidase = Beta-galactosidase (Escherichia coli, UniProt Q8VNN2); format: functional
Chain of Beta-galactosidase (Q8VNN2 whole entry): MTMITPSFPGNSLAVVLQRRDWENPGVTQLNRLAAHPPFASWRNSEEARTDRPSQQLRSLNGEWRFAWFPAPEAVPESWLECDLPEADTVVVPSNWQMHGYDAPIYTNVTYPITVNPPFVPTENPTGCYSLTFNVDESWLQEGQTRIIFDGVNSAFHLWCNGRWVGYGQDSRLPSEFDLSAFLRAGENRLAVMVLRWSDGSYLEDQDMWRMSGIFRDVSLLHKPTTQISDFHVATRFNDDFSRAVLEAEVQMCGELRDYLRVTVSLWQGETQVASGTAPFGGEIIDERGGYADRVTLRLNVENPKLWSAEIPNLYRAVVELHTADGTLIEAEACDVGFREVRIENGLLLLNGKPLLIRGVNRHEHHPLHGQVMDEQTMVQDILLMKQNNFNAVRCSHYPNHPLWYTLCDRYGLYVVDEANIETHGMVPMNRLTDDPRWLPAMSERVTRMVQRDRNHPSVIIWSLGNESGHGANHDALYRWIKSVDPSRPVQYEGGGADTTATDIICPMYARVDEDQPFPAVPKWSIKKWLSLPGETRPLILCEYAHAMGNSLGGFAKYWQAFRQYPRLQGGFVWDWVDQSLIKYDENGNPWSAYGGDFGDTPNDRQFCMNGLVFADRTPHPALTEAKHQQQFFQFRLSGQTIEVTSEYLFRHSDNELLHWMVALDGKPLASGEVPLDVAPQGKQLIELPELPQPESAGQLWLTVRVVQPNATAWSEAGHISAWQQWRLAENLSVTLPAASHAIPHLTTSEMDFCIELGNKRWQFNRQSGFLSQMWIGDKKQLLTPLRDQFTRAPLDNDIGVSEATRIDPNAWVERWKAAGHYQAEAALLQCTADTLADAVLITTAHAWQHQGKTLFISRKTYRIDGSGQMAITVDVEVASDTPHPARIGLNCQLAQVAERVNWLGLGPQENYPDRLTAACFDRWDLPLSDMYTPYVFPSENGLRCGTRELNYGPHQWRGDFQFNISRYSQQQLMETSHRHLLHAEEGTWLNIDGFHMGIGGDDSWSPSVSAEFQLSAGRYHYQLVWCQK

[12] = biological target: T3, Kappa-type opioid receptor; experiment: kappa opioid receptor blockers, cell-based, luminescence, beta-arrestin, SAR follow-up (AID 2285); format: functional
[13] = biological target: T3, Kappa-type opioid receptor; format: functional; remark: listed apart in the source
Mu-type opioid receptor [14] = biological target: T2, Mu-type opioid receptor; experiment: mu opioid receptor activators, image-based, SAR follow-up (AID 2352); format: functional
[15] = non-specific 3'UTR reporter inhibition in Clone20-Shn3RL – cell-based, Renilla luciferase, cherry-picked, counter-screen for Shn3 inhibitor project, dose response (AID 624133); format: functional
[16] = biological target: T5, Polyadenylate-binding protein 1; experiment: MLLE domain peptide-binding blockers, IC50 – biochemical, fluorescence polarization, FITC-PAM2 peptide, dose response (AID 602259); format: functional; details: read-out: IC50_Mean
[17] = biological target: T4, Delta-type opioid receptor; experiment: delta opioid receptor blockers – image-based, SAR follow-up (AID 2357); format: functional
[18] = Trypanosoma cruzi growth suppression in host cells – NIH3T3 host cells, beta-gal luminescence, confirmation (AID 2044); format: functional, cell-based;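 further: intracellular parasites grown in NIH/3T3 mouse fibroblasts as host cells; luminescent beta-galactosidase reporter signal from transgenic T. cruzi replicating inside host cells; inhibitors lower the luminescence signal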
[19] = biological target: T3, Kappa-type opioid receptor; experiment: kappa opioid receptor activation potency – imaging, image-based, SAR follow-up (AID 2359); format: functional
Streptococcus = experiment: GAS UMAA2166 growth inhibition – luminescence, BacTiterGlo, counter-screen for streptokinase expression inhibitor project, dose response (AID 1915); format: functional, organism-based;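 further: potency for reduction of bacterial viability or growth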
Streptokinase A = biological target: T6, Streptokinase A (Streptococcus pyogenes serotype M1, UniProt P10520); experiment: viability-normalized secreted streptokinase activity reduction – plasminogen activation absorbance, OD405, dose response (AID 1914); format: functional, Streptococcus pyogenes M1 GAS;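 further: secreted streptokinase activity via plasminogen activation per viability signal from cell pellet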
T6 sequence (P10520 whole entry): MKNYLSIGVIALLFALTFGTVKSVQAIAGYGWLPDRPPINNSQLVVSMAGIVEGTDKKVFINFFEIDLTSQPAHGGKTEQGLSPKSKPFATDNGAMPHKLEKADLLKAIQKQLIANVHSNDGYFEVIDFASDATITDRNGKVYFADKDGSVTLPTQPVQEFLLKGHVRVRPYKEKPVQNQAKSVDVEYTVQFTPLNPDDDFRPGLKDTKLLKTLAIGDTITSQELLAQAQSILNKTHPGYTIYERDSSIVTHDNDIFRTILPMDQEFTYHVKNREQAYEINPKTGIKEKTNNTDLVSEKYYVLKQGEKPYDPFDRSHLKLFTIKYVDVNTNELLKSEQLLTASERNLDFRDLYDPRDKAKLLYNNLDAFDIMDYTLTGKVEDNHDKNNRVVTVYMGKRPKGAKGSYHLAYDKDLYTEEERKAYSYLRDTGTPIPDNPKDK

[20] = biological target: DNA dC->dU-editing enzyme APOBEC-3G (Homo sapiens, UniProt Q9HC16); experiment: Dose Response confirmation of small molecule APOBEC3G DNA Deaminase Inhibitors via a fluorescence-based single-stranded DNA deaminase assay. [Related pubchem assays (depositor defined):AID493012, AID493028]; format: functional
Chain of DNA dC->dU-editing enzyme APOBEC-3G (Q9HC16 whole entry): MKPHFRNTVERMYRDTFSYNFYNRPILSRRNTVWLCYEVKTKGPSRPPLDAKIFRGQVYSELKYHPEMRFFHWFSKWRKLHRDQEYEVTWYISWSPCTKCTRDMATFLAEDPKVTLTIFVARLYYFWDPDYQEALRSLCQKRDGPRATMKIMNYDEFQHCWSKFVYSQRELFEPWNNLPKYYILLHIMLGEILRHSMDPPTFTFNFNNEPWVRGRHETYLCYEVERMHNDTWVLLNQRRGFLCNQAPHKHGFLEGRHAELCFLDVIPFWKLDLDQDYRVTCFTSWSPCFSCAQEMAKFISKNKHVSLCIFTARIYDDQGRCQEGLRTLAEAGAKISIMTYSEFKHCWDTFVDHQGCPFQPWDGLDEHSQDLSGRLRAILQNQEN

[21] = biological target: Glucose-6-phosphate 1-dehydrogenase (Homo sapiens, UniProt P11413); experiment: inhibition of Homo sapiens G6PD, dose series – biochemical, fluorescence, selectivity assay for P. falciparum G6PD inhibitor project, dose response (AID 504792); format: functional
Chain of Glucose-6-phosphate 1-dehydrogenase (P11413 whole entry): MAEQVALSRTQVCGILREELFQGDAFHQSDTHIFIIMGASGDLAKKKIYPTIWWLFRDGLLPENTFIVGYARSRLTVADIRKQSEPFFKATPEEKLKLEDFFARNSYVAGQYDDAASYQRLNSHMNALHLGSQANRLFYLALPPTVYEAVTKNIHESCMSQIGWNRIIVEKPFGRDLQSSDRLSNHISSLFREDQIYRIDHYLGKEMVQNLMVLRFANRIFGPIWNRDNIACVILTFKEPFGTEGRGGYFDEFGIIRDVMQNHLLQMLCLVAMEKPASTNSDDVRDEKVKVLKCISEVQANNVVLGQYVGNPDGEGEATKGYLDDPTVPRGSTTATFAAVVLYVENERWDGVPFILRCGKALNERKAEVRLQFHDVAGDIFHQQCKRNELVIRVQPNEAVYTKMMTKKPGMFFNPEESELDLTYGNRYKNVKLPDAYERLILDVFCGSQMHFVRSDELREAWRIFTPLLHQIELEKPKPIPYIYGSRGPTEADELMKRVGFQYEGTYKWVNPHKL

[22] = biological target: DNA dC->dU-editing enzyme APOBEC-3A (Homo sapiens, UniProt P31941); experiment: A3A deaminase inhibition for selectivity – biochemical, dose response (AID 504722); format: functional
Chain of DNA dC->dU-editing enzyme APOBEC-3A (P31941 whole entry): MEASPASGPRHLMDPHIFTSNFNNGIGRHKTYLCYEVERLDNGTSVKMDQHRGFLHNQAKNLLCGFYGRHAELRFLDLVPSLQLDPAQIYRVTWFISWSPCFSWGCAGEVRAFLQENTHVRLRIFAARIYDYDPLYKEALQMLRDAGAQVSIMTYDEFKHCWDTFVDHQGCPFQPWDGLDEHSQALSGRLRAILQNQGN

[23] = biological target: Peroxisome proliferator-activated receptor gamma/Nuclear receptor coactivator 2 (Homo sapiens, UniProt P37231); experiment: (§1) TR-FRET dose response biochemical High Throughput Screening assay for agonists of the steroid receptor coactivator 2 (SRC-2) recruitment by the peroxisome proliferator-activated receptor gamma (PPAR gamma): non-selective agonists. [Related pubchem assays: 1297, 1032 ]; format: functional
[24] = biological target: Peroxisome proliferator-activated receptor gamma/Nuclear receptor coactivator 1 (Homo sapiens, UniProt P37231); experiment: as §1, with “1 (SRC-1)” for “2 (SRC-2)”, “assays (depositor defined):AID1300, AID1808, AID504735, AID631]” for “assays: 1297, 1032 ]”; format: protein assay
[25] = biological target: Peroxisome proliferator-activated receptor gamma/Nuclear receptor coactivator 3 (Homo sapiens, UniProt P37231); experiment: as §1, with “3 (SRC-3)” for “2 (SRC-2)”, “1301 (Confirmation screen.), 1048 (Primary screen.)]” for “1297, 1032 ]”; format: functional

Chain of Lysine-specific demethylase 4C (Q9H3R0 whole entry): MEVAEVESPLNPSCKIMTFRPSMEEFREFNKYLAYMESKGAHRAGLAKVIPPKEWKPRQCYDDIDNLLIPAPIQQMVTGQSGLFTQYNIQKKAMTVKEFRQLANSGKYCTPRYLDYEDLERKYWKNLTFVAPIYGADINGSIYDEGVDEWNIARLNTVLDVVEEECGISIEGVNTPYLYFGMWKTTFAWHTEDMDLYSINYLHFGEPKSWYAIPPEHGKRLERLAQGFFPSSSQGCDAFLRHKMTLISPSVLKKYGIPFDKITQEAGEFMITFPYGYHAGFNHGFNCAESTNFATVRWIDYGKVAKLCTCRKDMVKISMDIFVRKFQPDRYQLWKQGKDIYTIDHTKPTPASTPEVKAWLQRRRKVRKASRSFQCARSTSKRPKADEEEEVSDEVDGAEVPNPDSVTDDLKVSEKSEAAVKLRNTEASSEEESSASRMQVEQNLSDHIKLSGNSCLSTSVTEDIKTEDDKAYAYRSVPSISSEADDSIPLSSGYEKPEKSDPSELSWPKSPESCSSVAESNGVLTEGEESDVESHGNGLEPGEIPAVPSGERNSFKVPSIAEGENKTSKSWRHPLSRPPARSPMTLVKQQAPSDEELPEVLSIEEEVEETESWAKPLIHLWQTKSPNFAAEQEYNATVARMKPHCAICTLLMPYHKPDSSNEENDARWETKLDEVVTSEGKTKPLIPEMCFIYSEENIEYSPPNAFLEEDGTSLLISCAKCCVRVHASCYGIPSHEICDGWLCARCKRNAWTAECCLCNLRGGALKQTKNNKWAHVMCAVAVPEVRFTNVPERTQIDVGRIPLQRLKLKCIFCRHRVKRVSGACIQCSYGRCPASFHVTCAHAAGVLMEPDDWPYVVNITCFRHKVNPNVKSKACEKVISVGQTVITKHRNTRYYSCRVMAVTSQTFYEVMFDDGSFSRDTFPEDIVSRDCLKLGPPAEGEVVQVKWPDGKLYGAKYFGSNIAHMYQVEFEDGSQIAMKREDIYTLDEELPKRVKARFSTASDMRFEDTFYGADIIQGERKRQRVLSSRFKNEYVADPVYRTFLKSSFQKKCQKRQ

Oc1cccc(/C=N/NC(=S)NCCN2CCOCC2)c1O
AC50 [1]: 4.02 µM (active)
CC50 [2]: 17.9 µM (active)
IC50 [3]: 23.6 µM (active)

O=C(NC(NC(=S)Nc1c(Cl)cc(Cl)cc1Cl)C(Cl)(Cl)Cl)OCc1ccccc1 (centres undefined)
EC50 [4]: > 60 µM (not active)
EC50 [5]: 0.562 µM (active)
IC50 (Mu-type opioid receptor [6]): > 32 µM (inactive)
IC50 [7]: 0.517 µM (active)
EC50 [8]: > 32 µM (inactive)
IC50 [9]: > 66 µM (inactive)
AC50 [10]: 18.5 µM (active)
IC50 [11]: 1.88 µM (active)
EC50 (Beta-galactosidase): > 31.5 µM (inactive)
IC50 [12]: 0.846 µM (active)
IC50 [13]: 0.63 µM
EC50 (Mu-type opioid receptor [14]): > 32 µM (inactive)
AC50 [15]: 2.04 µM (active)
IC50 [16]: > 66 µM (inactive)
IC50 [17]: > 32 µM (inactive)
EC50 [18]: 1.65 µM (active)
EC50 [19]: > 32 µM (inactive)
EC50 (Streptococcus): 39.3 µM (inconclusive)
EC50 (Streptokinase A): 1.83 µM (active)

O=S(=O)(Nc1ccccc1F)c1cccc(NC(=S)NCCN2CCOCC2)c1
AC50 [1]: 8.95 µM (active)
IC50 [20]: 7.38 µM (active)
IC50 [21]: > 80 µM (inactive)
IC50 [22]: > 100 µM (inactive)

Cn1c(=O)cc(SCC(=O)NCc2ccco2)c2ccccc21
EC50 [23]: > 79.4 µM (not active)
EC50 [24]: > 79.4 µM (inactive)
EC50 [25]: > 79.4 µM (not active)
